Measured values as given in article PMC12248599, “Exploring the Bioavailability of Red Grape Skin Extract Polyphenols: A Caco-2 Cell Model Study” (Foods, 2025).
Several values for one entry are separate records, joined by “and”; a condition that tells them apart may be missing. Identical values can stand only once. Marks after values point to notes of the source that are not given here.

How the values were obtained:
[1] = Caco-2 monolayer transport (bioavailability) study, AB and BA directions; assay type: in vitro ADME, Homo sapiens; conditions: human
Protocol: (§1) A reversed phase C18 column (Luna 5 μm C18(2) 100 Å, LC Column 250 × 4.6 mm, Phenomenex) was used to separate the polyphenols at a flow rate of 0.7 mL/min with an injection volume of 60 µL. The detection was carried out at 520 nm for anthocyanins (M3G, D3G and Pet3G), at 328 nm for CA, at 356 nm for flavonols (Q3G, K3Gal and K3G) and at 280 nm for GA and SA. The mobile phases were (A) acetonitrile 100% and (B) water 0.1% trifluoroacetic acid (v/v). The gradient was programmed as follows: 10% A 0 min, 10–80% A (0–20 min), 80–100% A (20–25 min), 100% A (25–30 min); 10% A (30–35 min) and 10% A (35–40 min). Every polyphenol was quantified using the corresponding reference standard calibration curve. Each of the quantified phenolic compound concentration was expressed as mg/mL
(§2) For the transport experiment Caco-2 cells were cultured at a density of 4 × 10^4 cells/cm^2 in Transwell inserts (12 mm i.d., 1.12 cm^2 growth area, 0.4 µm mean pore size polycarbonate membranes, Corning Inc., Milwaukee, WI, USA) placed in 12-well plates. Caco-2 cells were grown in DMEM in an incubator at 37 °C in a humidified atmosphere containing 5% CO2.
(§3) Bioavailability studies were performed in triplicate after 21 days of cell growth. Only inserts with stable TEER values higher than ≥300 Ω cm^2 were considered acceptable to perform the bioavailability study. For that purpose, DMEM media was removed, the monolayer was washed with PBS and HBSS was supplied to the cells.
(§4) Likewise, the GSE stock solution was diluted in HBSS medium to prepare GSE solutions S1 and S2. GSE solutions S1 and S2 had concentrations of 15 mg/mL and 22 mg/mL, respectively. These concentrations were established considering previous studies with grape pomace extracts that concluded that intestinal concentrations of 1–2% (w/v) show potential bioactivities and are safe to be used as a food ingredient.
(§5) The apical side represents the intestinal lumen and the basolateral side represents the bloodstream. Each sample (100 µL) was immediately acidified with 1M HCl to a final concentration of 0.007 M and subsequently frozen at −20 °C until analysis by HPLC (according to the method described in Section 2.5). Each experiment was carried out on 3 individual wells. The transport efficiency (TE) percentage was calculated according to Equation (2):Transport efficiency (%) = (C/C0) × 100(2) where, C is the polyphenol concentration at the acceptor side over time and C0 is the initial concentration at the donor side. TE values were calculated for the nine polyphenols identified in the grape skin extract.
(§6) The apparent permeability coefficient (Papp) of the polyphenols in GSE was calculated for apical to basolateral side (AB) and basolateral to apical side (BA) flux studies according to Equation (3):Papp (cm/s) = (dQ/dt) × (VR/AC0)(3) where, dQ/dt is the permeability rate which means the steady-state linear rate of change of concentration (mg/L) per second (s) at the acceptor side; A is the surface area of the cell monolayer (1.12 cm^2). C0 is the initial concentration at the donor side (mg/L) at t = 0 s and VR is the volume of the solution of the acceptor side (mL).
(§7) The efflux ratio (ER) of the polyphenol was assessed by calculating the Equation (4):ER = Papp (BA)/Papp (AB)(4) where, Papp (BA) is the apparent permeability coefficient of the polyphenol from basolateral to apical side and Papp (AB) is the apparent permeability coefficient from apical to basolateral side. ER is a measure of the relative contributions of active and passive transport to bi-direction flux across the cell monolayer.

Caco-2 cell monolayer = assay: as above; assay type: in vitro ADME, Homo sapiens; conditions: for reduction in concentration on the apical (donor) side: 0 to 180 min; for TE (%) transport efficiency: after 180 min
Protocol: as §1, §2, §3, §4, §5, §6, §7

Caco-2 cells = conditions: cited from earlier work
[2] = AB experiment, S2 (22 mg/mL GSE)
[3] = AB experiment, acceptor side, S2 (22 mg/mL GSE)
[4] = AB experiment, donor side, S1 (15 mg/mL GSE)
[5] = AB experiment, donor side, S2 (22 mg/mL GSE)
[6] = BA experiment, acceptor side, S1 (15 mg/mL GSE)
[7] = BA experiment, acceptor side, S2 (22 mg/mL GSE)
[8] = BA experiment, donor side, S1 (15 mg/mL GSE)
[9] = BA experiment, donor side, S2 (22 mg/mL GSE)

Work on COc1cc(-c2[o+]c3cc(O)cc(O)c3cc2O[C@@H]2O[C@H](CO)[C@@H](O)[C@H](O)[C@H]2O)cc(OC)c1O [M3G, malvidin-3-O-glucoside] yielded an efflux ratio at 180 min, 22 mg/mL ([1]; Caco-2, Papp (BA)/Papp (AB), S2 (22 mg/mL GSE), read-out: ER (efflux ratio)) of over 1, a Papp A→B at 180 min, 22 mg/mL ([1]; Caco-2, apical to basolateral, S2 (22 mg/mL GSE)) of 15 ± 1 ×10⁻⁶ cm/s and a Papp B→A at 180 min, 15 mg/mL ([1]; Caco-2, basolateral to apical, S1 (15 mg/mL GSE)) of 33 ± 2 ×10⁻⁶ cm/s. The Papp B→A at 180 min, 22 mg/mL ([1]; Caco-2, basolateral to apical, S2 (22 mg/mL GSE)) was 18 ± 1 ×10⁻⁶ cm/s, the “reduction in concentration on the apical (donor) side” value (Caco-2 cell monolayer; AB experiment, S1 (15 mg/mL GSE)) was 75 ± 2% and the “reduction in concentration on the apical (donor) side” value (Caco-2 cell monolayer; [2]) was 58 ± 3%. The “TE (%) transport efficiency” value (Caco-2 cell monolayer; [2]) was 1.08 ± 0.01%, the “Basolateral Side 180 min” value (Caco-2 cell monolayer; AB experiment, acceptor side, S1 (15 mg/mL GSE)) was “undetectable” and the “Basolateral Side 75 min” value (Caco-2 cell monolayer; [3]) was 0.12 ± 0.01 ^b mg/L. For the same molecule, the “Basolateral Side 90 min” value (Caco-2 cell monolayer; [3]) was 0.13 ± 0.01 ^c,d mg/L, the “Basolateral Side 115 min” value (Caco-2 cell monolayer; [3]) was 0.14 ± 0.01 ^d,c mg/L and the “Basolateral Side 180 min” value (Caco-2 cell monolayer; [3]) was 0.15 ± 0.01 ^c mg/L. The “Apical Side 0 min” value (Caco-2 cell monolayer; [4]) was 6.1 ± 0.3 mg/L and 6.1 ± 0.3 ^a mg/L, the “Apical Side 75 min” value (Caco-2 cell monolayer; [4]) was 4.5 ± 0.2 ^b mg/L and the “Apical Side 90 min” value (Caco-2 cell monolayer; [4]) was 3.2 ± 0.1 ^c mg/L. For the same molecule, the “Apical Side 115 min” value (Caco-2 cell monolayer; [4]) was 2.26 ± 0.06 ^d mg/L, the “Apical Side 180 min” value (Caco-2 cell monolayer; [4]) was 1.53 ± 0.04 mg/L and 1.53 ± 0.04 ^c mg/L and the “Apical Side 0 min” value (Caco-2 cell monolayer; [5]) was 14 ± 1 ^a mg/L. The “Apical Side 75 min” value (Caco-2 cell monolayer; [5]) was 11.6 ± 0.9 ^b mg/L, the “Apical Side 90 min” value (Caco-2 cell monolayer; [5]) was 9.2 ± 0.9 ^c mg/L and the “Apical Side 115 min” value (Caco-2 cell monolayer; [5]) was 7.2 ± 0.9 ^d mg/L. For the same molecule, the “Apical Side 180 min” value (Caco-2 cell monolayer; [5]) was 6.0 ± 0.8 mg/L and 6.0 ± 0.8 ^d mg/L, the “detection at the acceptor side” value (Caco-2 cell monolayer; AB experiments, basolateral side) was “detected” and the “TE (%) transport efficiency” value (Caco-2 cell monolayer; BA experiment, S2 (22 mg/mL GSE)) was 1.73 ± 0.04%. For the same molecule, the “Apical Side 75 min” value (Caco-2 cell monolayer; [6]) was 0.19 ± 0.02 ^a,b mg/L, the “Apical Side 90 min” value (Caco-2 cell monolayer; [6]) was 0.23 ± 0.02 ^b,c mg/L and the “Apical Side 115 min” value (Caco-2 cell monolayer; [6]) was 0.28 ± 0.02 ^c mg/L. For the same molecule, the “Apical Side 180 min” value (Caco-2 cell monolayer; [6]) was 0.33 ± 0.02 ^c mg/L, the “Apical Side 75 min” value (Caco-2 cell monolayer; [7]) was 0.18 ± 0.01 ^b mg/L and the “Apical Side 90 min” value (Caco-2 cell monolayer; [7]) was 0.22 ± 0.01 ^c mg/L. For the same molecule, the “Apical Side 115 min” value (Caco-2 cell monolayer; [7]) was 0.26 ± 0.01 ^d mg/L, the “Apical Side 180 min” value (Caco-2 cell monolayer; [7]) was 0.30 ± 0.01 ^c mg/L and the “Basolateral Side 0 min” value (Caco-2 cell monolayer; [8]) was 10.4 ± 0.7 ^a mg/L. For the same molecule, the “Basolateral Side 75 min” value (Caco-2 cell monolayer; [8]) was 9.7 ± 0.6 ^b mg/L, the “Basolateral Side 90 min” value (Caco-2 cell monolayer; [8]) was 9.1 ± 0.6 ^c mg/L and the “Basolateral Side 115 min” value (Caco-2 cell monolayer; [8]) was 8.5 ± 0.6 ^d mg/L. For the same molecule, the “Basolateral Side 180 min” value (Caco-2 cell monolayer; [8]) was 8.0 ± 0.6 ^c mg/L, the “Basolateral Side 0 min” value (Caco-2 cell monolayer; [9]) was 17.5 ± 0.4 ^a mg/L and the “Basolateral Side 75 min” value (Caco-2 cell monolayer; [9]) was 16.4 ± 0.4 ^b mg/L. The “Basolateral Side 90 min” value (Caco-2 cell monolayer; [9]) was 15.4 ± 0.3 ^c mg/L, the “Basolateral Side 115 min” value (Caco-2 cell monolayer; [9]) was 14.5 ± 0.3 ^c,d mg/L and the “Basolateral Side 180 min” value (Caco-2 cell monolayer; [9]) was 13.7 ± 0.2 ^c mg/L. For the same molecule, the “detection at the acceptor side” value (Caco-2 cell monolayer; BA experiments, apical side) was “detected”, the “transepithelial transport M3G efficiency” value (Caco-2 cells; Caco-2 cells, rabbiteye blueberry extract, depending on initial extract concentration, after 2 h) was 6.93–7.31% and the M3G transport efficiency (Caco-2 cells; after 240 min) was 0.35%.
